The record followed here is PMC10321576, “Cyclic peptides target the aromatic cage of a PHD-finger reader domain to modulate epigenetic protein function” (Chemical Science, 2023).

One series has as its target T1, KDM7A PHD (Homo sapiens, UniProt Q6ZMT4).
T1 construct: KDM7A 38-98; made in house
T1 sequence (Q6ZMT4 38-98): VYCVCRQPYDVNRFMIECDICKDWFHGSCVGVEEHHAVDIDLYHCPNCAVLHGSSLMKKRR
Put plainly: AlphaScreen displacement of H3 1-21K4me3-Bt. In kind it is binding. The settings on record: average of two independent experiments. An excerpt: (§1) The functional effect of OC9 on the PHD-finger was further assessed using an AlphaScreen (AS) based proximity assay. […]
Background: Alpha assays give light when donor and acceptor beads are brought close together.

Another series deals with KDM7A PHD+JmjC (Homo sapiens, UniProt Q6ZMT4). The series can be described thus: AlphaScreen displacement of H3 1-21K4me3-Bt. It is filed as binding. Conditions: average of two independent experiments.
Chain of KDM7A PHD+JmjC (Q6ZMT4 38-386 limits assumed): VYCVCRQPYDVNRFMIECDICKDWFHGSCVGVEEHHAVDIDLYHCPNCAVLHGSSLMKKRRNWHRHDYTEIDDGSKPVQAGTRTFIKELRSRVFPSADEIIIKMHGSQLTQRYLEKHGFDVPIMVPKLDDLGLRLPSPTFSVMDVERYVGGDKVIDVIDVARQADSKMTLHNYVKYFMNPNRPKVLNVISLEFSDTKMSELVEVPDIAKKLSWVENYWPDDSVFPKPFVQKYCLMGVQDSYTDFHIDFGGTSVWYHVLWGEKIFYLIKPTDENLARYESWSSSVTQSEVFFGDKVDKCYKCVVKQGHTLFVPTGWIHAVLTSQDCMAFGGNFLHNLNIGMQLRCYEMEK
Excerpt: as §1

The next series has as its target T2, KDM7B PHD (Homo sapiens, UniProt Q9UPP1).
T2 construct: KDM7B 1-66; made in house
T2 sequence (Q9UPP1 1-66 isoform Q9UPP1-2): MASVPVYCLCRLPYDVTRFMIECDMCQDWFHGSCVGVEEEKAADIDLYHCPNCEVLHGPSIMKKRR
The series can be described thus: AlphaScreen displacement of H3 1-21K4me3-Bt. The settings on record: average of at least two independent experiments; read-out: AlphaScreen displacement IC50, KDM7B PHD. It is filed as binding.
Excerpt: as §1

The next series deals with T3, KDM7B PHD+JmjC (Homo sapiens, UniProt Q9UPP1).
T3 construct: dual domain (PHD-JmjC) of KDM7B; made in house
T3 sequence (Q9UPP1 37-483 limits assumed): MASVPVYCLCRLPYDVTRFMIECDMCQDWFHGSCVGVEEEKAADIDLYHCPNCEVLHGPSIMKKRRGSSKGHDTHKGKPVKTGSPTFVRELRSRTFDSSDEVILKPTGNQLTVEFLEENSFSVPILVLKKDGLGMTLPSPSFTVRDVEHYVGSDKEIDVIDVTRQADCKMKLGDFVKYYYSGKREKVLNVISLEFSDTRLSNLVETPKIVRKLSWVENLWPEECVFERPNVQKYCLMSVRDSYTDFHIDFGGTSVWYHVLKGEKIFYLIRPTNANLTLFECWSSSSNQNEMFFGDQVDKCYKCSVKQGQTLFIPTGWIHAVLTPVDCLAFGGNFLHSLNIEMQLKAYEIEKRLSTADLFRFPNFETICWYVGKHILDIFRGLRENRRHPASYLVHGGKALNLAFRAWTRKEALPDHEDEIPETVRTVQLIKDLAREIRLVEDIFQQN
The series can be described thus: AlphaScreen displacement of H3 1-21K4me3-Bt. The settings on record: average of two independent experiments. It is filed as binding.
Excerpt: as §1

A further series concerns the target T4, KDM7C PHD (Homo sapiens, UniProt O75151).
T4 construct: KDM7C 1-67; made in house
T4 sequence (O75151 1-67): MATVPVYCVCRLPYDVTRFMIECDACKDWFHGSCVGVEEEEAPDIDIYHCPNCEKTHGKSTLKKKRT
Put plainly: AlphaScreen displacement of H3 1-21K4me3-Bt. The settings on record: average of two independent experiments. In kind it is binding.
Excerpt: as §1

A further series addresses T5, KDM7B dual domain (Homo sapiens, UniProt Q9UPP1).
T5 construct: dual domain (PHD-JmjC) of KDM7B; His-tag (C); made in house
Put plainly: AlphaScreen demethylation assay. In kind it is biochemical. An excerpt: We tested the effect of OC9 on KDM7B demethylation of H3_1–21K4me3K9me2 and the less-efficient H3_1–21K9me2 substrate by MALDI-TOF MS based assay.[14,19] […] Inhibition by OC9 was further confirmed by an orthogonal AS activity assay[58] (Fig. S41 ^†). […] As KDM7B aromatic cage mutation results in the same phenotypic outcome as JmjC catalytic site inactivation (e.g. KDM7B demethylase-dependent melanoma metastasis[20]), our results emphasise the crucial role of PHD-fingers in regulating KDM7 demethylase activity and the need to explore PHD-finger viability as therapeutic targets.

The subject of another series is Caco-2 cell. The series can be described thus: Cell permeability measurement (Caco-2). In kind it is in vitro ADME.
The test system of the next series is full-length KDM7B. The series can be described thus: Pull-down from transfected HEK293T nuclear lysates. It is filed as binding. The settings on record: 100-fold excess competitor. The method, then: HEK293T cells were transiently transfected with either a full-length wild-type KDM7B, or an aromatic cage inactivating mutant KDM7B (Y14A, W29A).[20]
Capture was performed with 1 μM probe incubated in pre-cleared lysate, recovered with streptavidin-conjugated magnetic beads, then washed and eluted by heating in denaturing solution. 100-fold excess OC9 or OC9 V10A were used as competitors. […] The upper left quadrant indicates >5-fold difference in recovered protein (based on T-test difference of mean log 2 (LFQ) values) and p-value threshold <0.05.

Each structure is given as a SMILES string. Peptide text beside a SMILES is read from it.

T5 sequence (Q9UPP1 37-483 limits assumed): as the sequence (Q9UPP1 37-483 limits assumed) above

As for `CC(C)C[C@@H]1NC(=O)[C@H](Cc2ccc(O)cc2)NC(=O)[C@H](Cc2ccc(O)cc2)NC(=O)CSC[C@@H](C(N)=O)NC(=O)[C@H]([C@@H](C)O)NC(=O)[C@H](CCCNC(=N)N)NC(=O)[C@H](Cc2ccccc2)NC(=O)[C@H](C(C)C)NC(=O)[C@H](CO)NC(=O)[C@@H]2CCCN2C(=O)[C@H](Cc2ccc(O)cc2)NC(=O)[C@@H]2CCCN2C(=O)[C@H](Cc2c[nH]cn2)NC(=O)[C@H]([C@@H](C)O)NC1=O` [OC9] (HELM PEPTIDE1{[O=C(C[*:3])[*:2]].Y.Y.L.T.H.P.Y.P.S.V.F.R.T.C.[am]}$PEPTIDE1,PEPTIDE1,1:R3-15:R3$$$V2.0), the IC50 – broadly, the concentration needed to halve the response being measured – amounted to 62 nM on KDM7A PHD; 132 nM on KDM7A PHD+JmjC; 32 nM at KDM7B PHD; 95 nM at KDM7B PHD+JmjC; 26 nM on KDM7C PHD. Further, the “inhibition of KDM7B demethylase in orthogonal AS activity assay” value at KDM7B dual domain was “Inhibition”. Besides, the “permeability in Caco-2 cell assay” value in the series on Caco-2 cell is on record as “negligible permeability”. The “competition of OC9-Bt pull-down of KDM7B” value with full-length KDM7B is listed as “substantially reduced KDM7B recovery”.
